This is an account of results in patent publication US6492492B1, “Circularly permuted biotin binding proteins” (University of Washington, priority 1998, dated 2002).

Assay [1] can be described thus: Isothermal titration calorimetry of biotin binding. Particulars: for ΔCp: Table 1a, CP51/46 in PB; for ΔCp observed: change in heat capacity of biotin association, linear fit of ΔH° versus temperature. The procedure:
Isothermal titration calorimetry (ITC) experiments on wild-type streptavidin were performed on a MicroCal Omega instrument. ITC experiments on CP51/46 were done using a Calorimetry Science Corporation 4200 Calorimeter (Provo, Utah). CP51/46 solutions of 30-40 μM concentration were titrated by the addition of 20×5μL aliquots of 750 μM biotin dissolved in the same buffer as the protein. All ITC experiments were done in either phosphate (50 mM sodium phosphate, 100 mM NaCl, pH 7.75) or Tris (50 mM Tris HCl, 100 mM NaCl, pH 7.75) buffers. Biotin concentrations were determined gravimetrically. Data were analyzed using the proprietary software supplied by Calorimetry Science Corporation with the instrument. Heats of dilution for each injection were subtracted from the reaction heats before data analysis. Nonlinear fitting of the data allowed the number of binding sites (n), association constant (Ka), and binding enthalpy (ΔH°) to be determined assuming noncooperative binding and one site per subunit.

The conditions of assay [2]: wild-type, cited from earlier work; for Ka: biotin association, estimated (Green 1990); for ΔH°: 25° C. (Chilkoti 1995).
Setting [3] is: Tris buffer, per mol of subunits.
Setting [4] is: phosphate buffer (PB), 25° C., per mol of subunits.

Several values for one entry are separate records, joined by “and”; a condition that tells them apart may be missing. Identical values can stand only once. Like-named read-outs stand apart in the source and are kept apart here.

In the case of “wild-type: Wild-type core streptavidin (SEQ ID NO:1), comparator for biotin binding [reference compound]”, the ΔCp in assay [1] (per mol of subunits) is -345 ± 12 cal/mol·°C. The same molecule showed a ΔCp observed in assay [1] of −345 cal/mol° C. The “TΔS°” value in assay [1] (wild-type, 25° C., from estimated Ka and Gibb's free energy) is -6.6 ± 0.4 kcal/mol; in assay [1] (wild-type, 25° C., from estimated Ka and Gibb's free energy, listed as wild-type streptavidin) it was -6.6 kcal/mol. For the same molecule, in assay [1] (wild-type, from estimated Ka, per mol of subunits), the “ΔG°” value was -18 kcal/mol. For the same molecule, the Ka is 2.5e+13 M⁻¹ in assay [2], roughly 2.5e+13 M⁻¹ in assay [2] (listed as Wild-type streptavidin) and “approximately 2.5×10^13 M^−1” in assay [2] (listed as streptavidin). Moreover, the “ΔH°” value in assay [2] is -24.9 ± 0.4 kcal/mol; in assay [2] (listed as wild type streptavidin), -24.9 kcal/mol.

B1: CP51/46: Circularly permuted core streptavidin; termini 13 and 139 joined by GGGS linker, loop residues 47-50 removed, new termini Glu51 and Ala46 (SEQ ID NO:4) (protein)
chain: MESRYVLTGRYDSAPATDGSGTALGWTVAWKNNYRNAHSATTWSGQYVGGAEARINTQWLLTSGTTEANAWKSTLVEHDTFTKVKPSAASGGGSAEAGITGTWYNQLGSTFIVTAGADGALTGTYESA
With B1, the ΔCp in assay [1] (per mol of subunits) was -95 ± 29 cal/mol·°C. In assay [1] (setting [3]), the “TΔS°” value is -3.3 ± 0.7 kcal/mol, the “ΔG°” value was -10.1 kcal/mol and the “ΔH°” value is -13.4 ± 0.7 kcal/mol. The Ka result in assay [1] (biotin association, Tris buffer pH 7.75, per mol of subunits) was “(2.47 ± 1.87) × 10^7 M^−1”. The same molecule registered a ΔCp observed in assay [1] of −95 cal/mol° C. Further, in assay [1] (setting [4]), the “TΔS°” value is −3.8 (±0.8) kcal/mol and −3.8 ± 0.8 kcal/mol; the “ΔG°” value was -10.0 kcal/mol; the “ΔH°” value was −13.8 (±0.8) kcal/mol and −13.8 ± 0.8 kcal/mol.
